Laboratory results as given in publication PMC8023712, “Carboxylesterase Activities and Protein Expression in Rabbit and Pig Ocular Tissues” (Molecular Pharmaceutics, 2021).

Columns and labels:
[1] = tested on: CES1 (rabbit ocular tissue homogenates); experiment: DME hydrolysis in rabbit ocular tissue homogenates; conditions: for DME hydrolysis rate: 5 μM DME
Method: (§1) The hydrolysis of DME was monitored with slight modifications using the published bioluminescence-based assay[13],[21] where recombinant firefly luciferase enzyme was used to detect the D-luciferin that formed in the reaction mixture. The DME hydrolysis reaction was done in white-coated 96-well plates (Thermo Scientific Sterilin Microtiter Plates). Tissue lysates (5 μg of protein) were preincubated in 0.1 M PBS, pH 6.5. The reaction was initiated by adding DME to a final concentration of 5 μM in a final volume of 200 μL. The hydrolysis of DME was allowed to proceed for 20 min at 37 °C. The formed D-luciferin was quantitated by an injection of 73 μL of the luciferase detection reagent [3 μg of rLuciferase, 50 nmol of ATP, and 50 nmol of MgCl2 in PBS], and the luminescence was measured immediately with a Victor^2 Microplate Reader (560 nm, 1 s). Serial 2-fold dilutions of D-luciferin in 0.1 M PBS, pH 6.5 were used to generate the standard curve (0.156–10 μM).
(§2) Inhibitors were tested at a final concentration range of 0.4–400 μM except for PMSF (0.3–2.5 mM).

[2] = tested on: CES1 (pig ocular tissue homogenates); experiment: DME hydrolysis in pig ocular tissue homogenates; conditions: for DME hydrolysis rate: 5 μM DME
Method: as §1, §2

[3] = molecular target: T1, CES1 (human liver homogenate) (Homo sapiens, UniProt P23141); experiment: DME hydrolysis in human liver homogenate (positive control); assay type: in vitro ADME; conditions: 5 μM DME
T1 construct: Homogenates for rat whole eye (covered by the license # ESAVI/8621/04.10.07/2017) and human liver; from tissue; host or cells: human liver homogenate (donated, Oulu University Hospital)
T1 sequence (P23141 18-567): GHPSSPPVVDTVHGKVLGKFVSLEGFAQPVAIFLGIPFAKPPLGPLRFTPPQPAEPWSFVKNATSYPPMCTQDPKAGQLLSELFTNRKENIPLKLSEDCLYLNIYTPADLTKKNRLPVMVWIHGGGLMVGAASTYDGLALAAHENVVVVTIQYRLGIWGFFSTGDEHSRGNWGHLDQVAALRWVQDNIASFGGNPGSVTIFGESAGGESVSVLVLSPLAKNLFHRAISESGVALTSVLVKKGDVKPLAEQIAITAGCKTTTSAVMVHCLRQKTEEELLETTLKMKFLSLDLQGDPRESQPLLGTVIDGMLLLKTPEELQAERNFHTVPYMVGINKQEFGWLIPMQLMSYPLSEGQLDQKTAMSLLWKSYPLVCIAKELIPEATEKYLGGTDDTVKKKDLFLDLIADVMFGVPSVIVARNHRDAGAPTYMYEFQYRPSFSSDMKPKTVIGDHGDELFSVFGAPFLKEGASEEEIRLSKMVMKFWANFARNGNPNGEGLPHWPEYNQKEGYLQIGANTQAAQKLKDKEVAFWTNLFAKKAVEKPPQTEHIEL
Source text: (§3) CES enzymes are localized in the endoplasmic reticulum,[2],[45] but some activity resides in the cytoplasm.[46] Therefore, to prevent possible losses during sample preparation, we used whole tissue homogenates to characterize CES expression and activity in ocular tissues. The homogenization of pooled ocular tissues in 1 × DPBS buffer (3:1 v/w) was done with a Dounce homogenizer (Thomas Scientific; Swedesboro, NJ) with 5–10 strokes, depending on the ocular tissue. Aqueous humor and vitreous were homogenized without adding buffer. Tissue homogenization buffer was supplemented with protease inhibitor cocktail without phenylmethylsulfonyl fluoride (PMSF), a known inhibitor of esterases.[47],[48] After homogenization, all samples were sonicated at 750 W (Vibra-Cell VCX50 and a four-element microtip probe; Sonics & Materials Inc., Newton, CT) using four pulses of 45 s with a cooling interval of 15 s. […]
(§4) The hydrolysis of DME was monitored with slight modifications using the published bioluminescence-based assay[13],[21] where recombinant firefly luciferase enzyme was used to detect the D-luciferin that formed in the reaction mixture. […] The formed D-luciferin was quantitated by an injection of 73 μL of the luciferase detection reagent [3 μg of rLuciferase, 50 nmol of ATP, and 50 nmol of MgCl2 in PBS], and the luminescence was measured immediately with a Victor^2 Microplate Reader (560 nm, 1 s).

[4] = tested on: CES1 (rat whole eye homogenate); experiment: DME hydrolysis in rat whole eye homogenate (positive control); assay type: in vitro ADME; conditions: 5 μM DME
Source text: as §3, §4

rhCES1 = conditions: read-out: Km literature data, DME; cited from earlier work

COC(=O)[C@H]1CSC(c2nc3ccc(O)cc3s2)=N1 [DME, D-luciferin methyl ester]
DME hydrolysis rate ([1]; rabbit RPE and retina): 0.1 to 0.5 nmol/min/mg | DME hydrolysis rate ([1]; rabbit aqueous humor and vitreous): 0.5 to 1.0 nmol/min/mg | DME hydrolysis rate ([1]; rabbit conjunctiva, cornea and choroid): ≥ 1 nmol/min/mg | Km ([1]; read-out: Km (this study), DME hydrolysis in rabbit cornea): 2500 ± 800 nM | DME hydrolysis rate ([2]; pig RPE, aqueous humor and vitreous): 0.1 to 0.2 nmol/min/mg | DME hydrolysis rate ([2]; pig conjunctiva, cornea and choroid): ≥ 1 nmol/min/mg | DME hydrolysis rate ([2]; pig retina): 0.5 to 1 nmol/min/mg | Km ([2]; read-out: Km (this study), DME hydrolysis in pig cornea): 2700 ± 1300 nM | DME hydrolysis rate [3]: 3.6 ± 0.7 nmol/min/mg | DME hydrolysis rate [4]: 2.6 ± 0.2 nmol/min/mg | Km (rhCES1): ~5 µM
